Test results taken from US10736883B2, “Triazole furan compounds as agonists of the APJ receptor” (AMGEN INC., priority 2016, dated 2020).

Target: APJ receptor (Homo sapiens (Human), UniProt P35414)
Test: [35S]GTPγS binding assay on membranes from CHO cells stably expressing human APJ receptor
Assay type: biochemical
Details: membranes of CHO cells stably expressing human APJ receptor, means of several independent experiments, read-out: Activity hAPJ SPA EC50 IP
Method in brief: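 Membranes from CHO cells stably expressing human APJ were incubated with 0.2 nM [35S]GTPγS and ligands for 90 min at RT in 20 mM HEPES pH 7.5, 5 mM MgCl2, 200 mM NaCl, 3 μM GDP, 0.1% BSA with WGA PS beads. Nonspecific binding was set with 100 μM GTPγS. EC50 came from non-linear regression.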

Chain of APJ receptor (P35414 whole entry): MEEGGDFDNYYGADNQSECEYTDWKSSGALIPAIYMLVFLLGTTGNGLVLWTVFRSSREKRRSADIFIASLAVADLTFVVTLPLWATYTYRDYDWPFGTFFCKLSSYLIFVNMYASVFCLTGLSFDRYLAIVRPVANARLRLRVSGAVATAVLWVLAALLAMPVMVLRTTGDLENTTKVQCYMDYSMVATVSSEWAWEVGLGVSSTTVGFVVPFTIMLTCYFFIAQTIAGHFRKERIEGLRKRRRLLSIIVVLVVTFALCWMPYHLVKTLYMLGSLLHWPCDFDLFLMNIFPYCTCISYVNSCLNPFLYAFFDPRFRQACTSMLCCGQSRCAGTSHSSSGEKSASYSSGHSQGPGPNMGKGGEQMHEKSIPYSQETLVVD

SMILES | EC50
CO[C@H](c1ncc(Cl)cn1)[C@H](C)S(=O)(=O)Nc1nnc(-c2ccc(C)o2)n1[C@H]1CCCOC1 [Example 390.0, (1R,2S)-1-(5-chloropyrimidin-2-yl)-1-methoxy-N-(5-(5-methylfuran-2-yl)-4-((S)-tetrahydro-2H-pyran-3-yl)-4H-1,2,4-triazol-3-yl)propane-2-sulfonamide] | 13 nM
COc1cccc(OC)c1-n1c(NS(=O)(=O)[C@@H]2CCCN(C(=O)N(C)C)C2)nnc1-c1ccco1 (single isomer, unassigned) [Example 340.0, (S)-3-(N-(4-(2,6-Dimethoxyphenyl)-5-(furan-2-yl)-4H-1,2,4-triazol-3-yl)sulfamoyl)-N,N-dimethylpiperidine-1-carboxamide or (R)-3-(N-(4-(2,6-dimethoxyphenyl)-5-(furan-2-yl)-4H-1,2,4-triazol-3-yl)sulfamoyl)-N,N-dimethylpiperidine-1-carboxamide] | 75 nM
COc1cccc(OC)c1-n1c(NS(=O)(=O)[C@@H](C)C2(O)COC2)nnc1-c1ccc(C)o1 (single isomer, unassigned) [Example 311.0, (1S)—N-(4-(2,6-Dimethoxyphenyl)-5-(5-methyl-2-furanyl)-4H-1,2,4-triazol-3-yl)-1-(3-hydroxy-3-oxetanyl)ethanesulfonamide or (1R)—N-(4-(2,6-dimethoxyphenyl)-5-(5-methyl-2-furanyl)-4H-1,2,4-triazol-3-yl)-1-(3-hydroxy-3-oxetanyl)ethanesulfonamide] | 190 nM
COc1cccc(OC)c1-n1c(NS(=O)(=O)[C@H](C)Cc2ccc(C#N)cn2)nnc1-c1ccc(C)o1 (single isomer, unassigned) [Example 33.0, (2R)-1-(5-cyano-2-pyridinyl)-N-(4-(2,6-dimethoxyphenyl)-5-(5-methyl-2-furanyl)-4H-1,2,4-triazol-3-yl)-2-propanesulfonamide or (2S)-1-(5-cyano-2-pyridinyl)-N-(4-(2,6-dimethoxyphenyl)-5-(5-methyl-2-furanyl)-4H-1,2,4-triazol-3-yl)-2-propanesulfonamide] | 2.4 nM
COc1cccc(OC)c1-n1c(NS(=O)(=O)[C@H](C)Cc2ncc(F)cn2)nnc1-c1cc(C)c(C)o1 (single isomer, unassigned) [Example 91.0, (R)—N-(4-(2,6-Dimethoxyphenyl)-5-(4,5-dimethylfuran-2-yl)-4H-1,2,4-triazol-3-yl)-1-(5-fluoropyrimidin-2-yl)propane-2-sulfonamide or (S)—N-(4-(2,6-dimethoxyphenyl)-5-(4,5-dimethylfuran-2-yl)-4H-1,2,4-triazol-3-yl)-1-(5-fluoropyrimidin-2-yl)propane-2-sulfonamide] | 4.2 nM
COc1cccc(OC)c1-n1c(NS(=O)(=O)[C@@H](C)[C@H](O)c2cc3n(n2)CCCO3)nnc1-c1ccc(C)o1 (single isomer, unassigned) [Example 292.0, (1R,2S)-1-(6,7-Dihydro-5H-pyrazolo[5,1-b][1,3]oxazin-2-yl)-N-(4-(2,6-dimethoxyphenyl)-5-(5-methyl-2-furanyl)-4H-1,2,4-triazol-3-yl)-1-hydroxy-2-propanesulfonamide or (1S,2R)-1-(6,7-dihydro-5H-pyrazolo[5,1-b][1,3]oxazin-2-yl)-N-(4-(2,6-dimethoxyphenyl)-5-(5-methyl-2-furanyl)-4H-1,2,4-triazol-3-yl)-1-hydroxy-2-propanesulfonamide] | 5.1 nM
COc1c(Br)cc(Br)c(OC)c1-n1c(NS(=O)(=O)[C@@H](C)[C@H](C)c2ncc(F)cn2)nnc1-c1ccc(C)o1 [Example 189.0, (2S,3R)—N-(4-(3,5-Dibromo-2,6-dimethoxyphenyl)-5-(5-methyl-2-furanyl)-4H-1,2,4-triazol-3-yl)-3-(5-fluoro-2-pyrimidinyl)-2-butanesulfonamide] | 110 nM

Next, values leading:

EC50 | SMILES
5 nM | COc1cccc(OC)c1-n1c(NS(=O)(=O)[C@H](C)[C@@H](O)c2cc3n(n2)CCCO3)nnc1-c1ccc(C)o1 (racemic) [Example 290.0]
1.4 nM | COc1cccc(OC)c1-n1c(NS(=O)(=O)[C@@H](C)[C@](C)(N)c2ncc(F)cn2)nnc1-c1ccc(C)o1 (single isomer, unassigned) [Example 246.0]
72 nM | COc1cccc(OC)c1-n1c(NS(=O)(=O)[C@H](C)Cc2cncnc2)nnc1-c1ccco1 (single isomer, unassigned) [Example 45.0, (2R)—N-(4-(2,6-dimethoxyphenyl)-5-(2-furanyl)-4H-1,2,4-triazol-3-yl)-1-(5-pyrimidinyl)-2-propanesulfonamide or (2S)—N-(4-(2,6-dimethoxyphenyl)-5-(2-furanyl)-4H-1,2,4-triazol-3-yl)-1-(5-pyrimidinyl)-2-propanesulfonamide]
0.51 nM | COc1ncnc(OC)c1-n1c(NS(=O)(=O)[C@@H](C)[C@H](C)c2ncc(C#N)cn2)nnc1-c1ccc(C)o1 [Example 397.0, (2S,3R)-3-(5-Cyano-2-pyrimidinyl)-N-(4-(4,6-dimethoxy-5-pyrimidinyl)-5-(5-methyl-2-furanyl)-4H-1,2,4-triazol-3-yl)-2-butanesulfonamide]
0.2 nM | COc1cccc(OC)c1-n1c(NS(=O)(=O)[C@@H](C)[C@H](O)c2ccc(C#N)cc2F)nnc1-c1ccc(C)o1 (single isomer, unassigned) [Example 61.0]
75 nM | COc1cccc(OC)c1-n1c(NS(=O)(=O)[C@H]2CNC[C@H](c3ccc(F)cc3)C2)nnc1-c1ccco1 (single isomer, unassigned) [Example 188.0, (3R,5S)—N-(4-(2,6-Dimethoxyphenyl)-5-(2-furanyl)-4H-1,2,4-triazol-3-yl)-5-(4-fluorophenyl)-3-piperidinesulfonamide or (3S,5R)—N-(4-(2,6-dimethoxyphenyl)-5-(2-furanyl)-4H-1,2,4-triazol-3-yl)-5-(4-fluorophenyl)-3-piperidinesulfonamide]
2 nM | COc1cccc(OC)c1-n1c(NS(=O)(=O)[C@@H]2CCC[C@H]2c2ncc(F)cn2)nnc1-c1ccc(C)o1 (single isomer, unassigned) [Example 101.0, (1R,2S)—N-(4-(2,6-Dimethoxyphenyl)-5-(5-methyl-2-furanyl)-4H-1,2,4-triazol-3-yl)-2-(5-fluoro-2-pyrimidinyl)cyclopentanesulfonamide or (1S,2R)—N-(4-(2,6-dimethoxyphenyl)-5-(5-methyl-2-furanyl)-4H-1,2,4-triazol-3-yl)-2-(5-fluoro-2-pyrimidinyl)cyclopentanesulfonamide]
200 nM | COc1cccc(OC)c1-n1c(NS(=O)(=O)[C@H]2CON(C)[C@@H]2c2ncc(F)cn2)nnc1-c1ccco1 (single isomer, unassigned) [Example 343.0, (3R,4R)—N-(4-(2,6-Dimethoxyphenyl)-5-(furan-2-yl)-4H-1,2,4-triazol-3-yl)-3-(5-fluoropyrimidin-2-yl)-2-methylisoxazolidine-4-sulfonamide or (3S,4S)—N-(4-(2,6-dimethoxyphenyl)-5-(furan-2-yl)-4H-1,2,4-triazol-3-yl)-3-(5-fluoropyrimidin-2-yl)-2-methylisoxazolidine-4-sulfonamide]
43 nM | COc1cccc(OC)c1-n1c(NS(=O)(=O)c2cccc(CO)c2)nnc1-c1ccc(C)o1 [Example 409.0, N-(4-(2,6-dimethoxyphenyl)-5-(5-methyl-2-furanyl)-4H-1,2,4-triazol-3-yl)-3-(hydroxymethyl)benzenesulfonamide]
